Fragment found data for 2 sequences are collected here from patent US8148508 (dated 2012).

One data set deals with recombinant clostripain. Kind of data set: cell free extract with 0.2 units of recombinant clostripain per mg precursor polypeptide. Particulars: up to up to 3 hours.
For data set [1], the system named is clostripain. Kind of data set: 50 mM HEPES buffer (pH 6.7), 1 mM CaCl2, 1 mM cysteine, 4.8 M urea, 10, 20 and 35% ethanol. The following applies: 25° C., up to 30 minutes.
Data set [2] concerns clostripain. Briefly: clostripain digestion under different pH conditions.
The test system of data set [3] is clostripain. Kind of data set: cell free extract containing T7tag-GSDR-[GLP-2(1-34)]6 precursor, pH 6.4 NaH2PO4, 1 mM CaCl2, 1 mM DTT. The following applies: 25° C., up to approximately 3 hours.
The subject of data set [4] is clostripain. Kind of data set: 10 mM Tris, 1 mM EDTA, 5 mM CaCl2 (pH 8.0), varying clostripain ratios. The following applies: 21° C.; also 40° C., up to 10 hr.

On to HGDGSFSDEMNTILDNLAARDFINWLIQTKITD, for which the fragment found entry with recombinant clostripain is listed as “GLP-2 fragment (21-33)”; with clostripain [1], “GLP-2(21-33)”; in the data set on clostripain [2], “GLP-2(21-33)”.
HADGSFSDEMNTILDNLAARDFINWLIQTKITDR: the fragment found entry with clostripain [3] is listed as “GLP-2 fragment (21-34)”; with clostripain [4], “truncated GLP-2(21-34)”.
